Test results reported in US8822754B2, “Ecdysone receptor-based inducible gene expression system” (Intrexon Corporation, priority 2000, dated 2014).

Tests used:
CfVgRXR = assay: Transactivation of reporter genes through switch 1.10 in 3T3 cells; type: cell-based, Choristoneura fumiferana; details: switch 1.10 CfVgRXR, pIND(SP1)LacZ
Description: This example was prepared in the same way as switch 1.9 except MmRXR (SEQ ID NO: 53) was deleted.
The cells were plated when they reached 50% confluency.
(§1) Cells were harvested 24-48 hr after adding ligands. […] Twenty μl of lysate was assayed.

GAL4RXR + VP16CfEcR = assay: Transactivation of reporter genes through switch 1.3 in 3T3 cells
From the text: In various cellular backgrounds, including mammalian cells, insect ecdysone receptor (EcR) heterodimerizes with retinoid X receptor (RXR) and, upon binding of ligand, transactivates genes under the control of ecdysone response elements. Applicants constructed several EcR-based gene expression cassettes based on the spruce budworm Choristoneura fumiferana EcR (“CfEcR”; full length polynucleotide and amino acid sequences are set forth in SEQ ID NO: 49 and SEQ ID NO: 50, respectively), C. fumiferana ultraspiracle (“CfUSP”; full length polynucleotide and amino acid sequences are set forth in SEQ ID NO: 51 and SEQ ID NO: 52, respectively), and mouse Mus musculus RXRα (MmRXRα; full length polynucleotide and amino acid sequences are set forth in SEQ ID NO: 53 and SEQ ID NO: 54, respectively). The prepared receptor constructs comprise a ligand binding domain of EcR and of RXR or of USP; a DNA binding domain of GAL4 or of EcR; and an activation domain of VP16. The reporter constructs include a reporter gene, luciferase or LacZ, operably linked to a synthetic promoter construct that comprises either GAL4 or EcR/USP binding sites (response elements). Various combinations of these receptor and reporter constructs were cotransfected into CHO, NIH3T3, CV1 and 293 cells. […] Reporter gene expression activities were assayed at 24 hr or 48 hr after ligand addition.
MmRXRDEF (SEQ ID NO: 22) was fused to a GAL4DNABD (SEQ ID NO: 41) and CfEcRCDEF (SEQ ID NO: 1) was fused to a VP16AD (SEQ ED NO: 45).
The same procedures described for CHO cells were followed for 3T3 cells as well with two modifications. The cells were plated when they reached 50% confluency. 125,000 or 50,000 or 25,000 cells were plated per well of 6- or 12- or 24-well plates respectively. The GAl4EcR/VP16RXR and reporter vector DNAs were transfected into NIH3T3 cells, the transfected cells were grown in medium containing PonA, MurA, N-(2-ethyl-3-methoxybenzoyl)-N′-(3,5-dimethylbenzoyl)-N′-t-butylhydrazine, or N-(3,4-(1,2-ethylenedioxy)-2-methylbenzoyl)-N′-(3,5-dimethylbenzoyl)-N′-tert-butylhydrazine for 48 hr. The ligand treatments were performed as described in the CHO cell section above.
Cells were harvested 24-48 hr after adding ligands. 125, 250, or 500 μl of passive lysis buffer (part of Dual-luciferase™ reporter assay system from Promega Corporation) were added to each well of 24- or 12- or […] respectively. The plates were placed on a rotary shaker for 15 min. Twenty μl of lysate was assayed. Luciferase activity was measured using Dual-luciferase™ reporter assay system from Promega Corporation following the manufacturer's instructions. β-Galactosidase was measured using Galacto-Star™ assay kit from TROPIX following the manufacturer's instructions. All luciferase and β-galactosidase activities were normalized using Renilla luciferase as a standard. Fold activities were calculated by dividing normalized relative light units (“RLU”) in ligand treated cells with normalized RLU in DMSO treated cells (untreated control).

CfVgRXR + MmRXR [1] = assay: Transactivation of reporter genes through switch 1.9 in CV1 cells; type: cell-based, Choristoneura fumiferana; details: switch 1.9 CfVgRXR + MmRXR, pIND(SP1)LacZ
Description: (§2) This example was prepared in the same way as switch 1.8 except DinEcR was replaced with a truncated CfEcR comprising a partial A/B domain and the complete CDEF domains [SEQ ID NO: 62 (polynucleotide) and SEQ ID NO: 63 (polypeptide)].
(§3) The same procedures described for NIH3T3 cells were followed for CV1 cells
as §1

GAL4EcR + VP16RXR = assay: Transactivation of reporter genes through switch 1.1 in CV1 cells; type: cell-based, Choristoneura fumiferana; details: switch 1.1 GAL4EcR + VP16RXR, pGAL4RELuc
Description: as §3, §1

GAL4RXR + VP16DmEcR = biological target: T1, GAL4RXR + VP16DmEcR (Drosophila melanogaster, UniProt P34021); assay: Transactivation of reporter genes through switch 1.4 in CV1 cells; type: cell-based; set-up: expressed in transfected cells; host or cells: CV1 cells (transient co-transfection); details: switch 1.4 GAL4RXR + VP16DmEcR, pGAL4RELuc
T1 sequence (P34021 254-878): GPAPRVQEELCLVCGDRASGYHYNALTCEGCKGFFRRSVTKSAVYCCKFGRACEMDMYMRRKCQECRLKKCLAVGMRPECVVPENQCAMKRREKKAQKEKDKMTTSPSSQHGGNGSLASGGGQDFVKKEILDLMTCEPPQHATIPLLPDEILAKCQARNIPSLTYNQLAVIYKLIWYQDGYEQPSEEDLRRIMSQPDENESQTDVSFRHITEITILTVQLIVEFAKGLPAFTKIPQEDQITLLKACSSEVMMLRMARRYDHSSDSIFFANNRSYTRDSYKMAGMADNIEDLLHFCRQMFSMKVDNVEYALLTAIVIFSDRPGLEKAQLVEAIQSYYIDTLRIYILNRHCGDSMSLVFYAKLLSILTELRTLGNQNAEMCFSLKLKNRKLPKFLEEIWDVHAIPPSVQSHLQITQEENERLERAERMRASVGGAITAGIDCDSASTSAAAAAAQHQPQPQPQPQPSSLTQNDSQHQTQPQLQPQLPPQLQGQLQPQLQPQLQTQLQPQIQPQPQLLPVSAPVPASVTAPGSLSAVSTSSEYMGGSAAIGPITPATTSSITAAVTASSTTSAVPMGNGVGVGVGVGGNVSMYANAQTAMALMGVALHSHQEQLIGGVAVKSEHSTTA
T1 sequence (P28700 206-467 partner limits assumed): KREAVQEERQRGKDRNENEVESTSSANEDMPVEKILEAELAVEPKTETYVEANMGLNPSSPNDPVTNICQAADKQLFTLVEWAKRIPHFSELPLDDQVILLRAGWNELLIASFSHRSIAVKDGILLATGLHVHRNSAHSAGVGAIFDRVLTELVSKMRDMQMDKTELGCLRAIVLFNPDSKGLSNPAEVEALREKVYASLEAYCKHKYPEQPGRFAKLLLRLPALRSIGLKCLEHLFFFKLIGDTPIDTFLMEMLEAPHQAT
Description: This construct was prepared in the same way as switch 1.3 except CfEcRCDEF was replaced with DmEcRCDEF (SEQ ID NO: 6).
as §3, §1

CfVgRXR + MmRXR [2] = assay: Transactivation of reporter genes through switch 1.9 in CHO cells; type: cell-based, Choristoneura fumiferana; details: switch 1.9 CfVgRXR + MmRXR, pIND(SP1)LacZ
Description: as §2
The cells were harvested and reporter activity was assayed.
as §1

Compound: CCc1c(OC)cccc1C(=O)NN(C(=O)c1cc(C)cc(C)c1)C(C)(C)C [N-(2-ethyl-3-methoxybenzoyl)-N′-(3,5-dimethylbenzoyl)-N′-tert-butylhydrazine]
- Mean Fold Activation Through N-(2-ethyl-3-methoxybenzoyl)-N′-(3,5-dimethylbenzoyl)-N′-t-butylhydrazine (CfVgRXR): 2 fold
- Mean Fold Induction at 1.0 μM Concentration (GAL4RXR + VP16CfEcR; GAL4MmRXRDEF/VP16CfEcRCDEF (switch 1.3), 1.0 μM ligand): 71 fold
- Mean Fold Activation Through N-(2-ethyl-3-methoxybenzoyl)-N′-(3,5-dimethylbenzoyl)-N′-t-butylhydrazine (GAL4RXR + VP16CfEcR; switch 1.3 GAL4RXR + VP16CfEcR, pGAL4RELuc): 47 fold
- Mean Fold Activation Through N-(2-ethyl-3-methoxybenzoyl)-N′-(3,5-dimethylbenzoyl)-N′-t-butylhydrazine (CfVgRXR + MmRXR [1]): 7 fold
- Mean Fold Activation Through N-(2-ethyl-3-methoxybenzoyl)-N′-(3,5-dimethylbenzoyl)-N′-t-butylhydrazine (GAL4EcR + VP16RXR): 279 fold
- Mean Fold Activation Through N-(2-ethyl-3-methoxybenzoyl)-N′-(3,5-dimethylbenzoyl)-N′-t-butylhydrazine (GAL4RXR + VP16DmEcR): 80 fold
- Mean Fold Activation with 50 μM N-(2-ethyl-3-methoxybenzoyl)-N′-(3,5-dimethylbenzoyl)-N′-t-butylhydrazine (CfVgRXR + MmRXR [2]): 27 fold
